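These data come from cells grown in 96-well plates and exposed to compound for 48 hours at five concentrations. GI50 marks 50% less growth. The concentration for full growth arrest is given as TGI.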
Experiments:
Test in all cases: DTP human tumour cell line panel, 48 h
[1] = test system: HOP-92 NSCLC
[2] = test system: TK-10 renal
[3] = test system: NCI-H460 lung
[4] = test system: HL-60(TB) leukemia
[5] = test system: UACC-257 melanoma
[6] = test system: OVCAR-4 ovarian
[7] = test system: BT-549 breast
[8] = test system: RPMI-8226 leukemia
[9] = test system: RXF 393 renal
[10] = test system: HT29 colon
[11] = test system: MALME-3M melanoma
[12] = test system: KM12 colon
[13] = test system: NCI-H23 lung
[14] = test system: MDA-MB-231 breast
[15] = test system: EKVX NSCLC
[16] = test system: MDA-MB-435
[17] = test system: SR leukemia
[18] = test system: OVCAR-3 ovarian
[19] = test system: SF-268 CNS
[20] = test system: CCRF-CEM leukemia
[21] = test system: UACC-62 melanoma
[22] = test system: 786-0 renal
[23] = test system: K-562 leukemia
[24] = test system: SW-620 colon
[25] = test system: NCI-H522 lung
[26] = test system: ACHN renal
[27] = test system: MCF7 breast
[28] = test system: A549 NSCLC
[29] = test system: HCT-116 colon
[30] = test system: A498 renal
[31] = test system: SN12C renal
[32] = test system: COLO 205 colon
[33] = test system: SNB-19 CNS
[34] = test system: SF-295 CNS
[35] = test system: OVCAR-8 ovarian
[36] = test system: T-47D breast
[37] = test system: U251 CNS
[38] = test system: HS 578T breast
[39] = test system: SF-539 CNS
[40] = test system: NCI/ADR-RES ovarian
[41] = test system: LOX IMVI melanoma
[42] = test system: OVCAR-5 ovarian
[43] = test system: UO-31 renal
[44] = test system: CAKI-1 renal
[45] = test system: MOLT-4 leukemia
[46] = test system: SK-MEL-2 melanoma
[47] = test system: PC-3 prostate
[48] = test system: HOP-62 NSCLC
[49] = test system: SK-MEL-5 melanoma
[50] = test system: HCT-15 colon
[51] = test system: SNB-75 CNS
[52] = test system: M14 melanoma
[53] = test system: IGROV1 ovarian
[54] = test system: HCC-2998 colon
[55] = test system: DU-145 prostate
[56] = test system: SK-MEL-28 melanoma
[57] = test system: NCI-H226 lung
[58] = test system: SK-OV-3 ovarian

## CN(C)Cc1ccc(NC(=O)c2cncc(C#Cc3cnc(N)c4ncccc34)c2)cc1C(F)(F)F
[1]
  GI50: 1.04 µM
  TGI: 4.66 µM
[2]
  GI50: 1.81 µM
  TGI: 3.31 µM
[3]
  GI50: 1.67 µM
  TGI: 3.12 µM
[4]
  GI50: 0.937 µM
  TGI: 2.51 µM
[5]
  GI50: 0.673 µM
  TGI: 2.53 µM
[6]
  GI50: 1.16 µM
  TGI: 2.56 µM
[7]
  GI50: 2.21 µM
  TGI: 4.36 µM
[8]
  GI50: 1.24 µM
  TGI: 3.58 µM
[9]
  GI50: 1.31 µM
  TGI: 2.88 µM
[10]
  GI50: 0.133 µM
  TGI: 1.86 µM
[11]
  GI50: 0.104 µM
  TGI: 0.956 µM
[12]
  GI50: 0.0759 µM
  TGI: 1.4 µM
[13]
  GI50: 1.25 µM
  TGI: 2.68 µM
[14]
  GI50: 1.07 µM
  TGI: 2.36 µM
[15]
  GI50: 1.71 µM
  TGI: 3.36 µM
[16]
  GI50: 0.376 µM
  TGI: 1.88 µM
[17]
  GI50: 1.43 µM
  TGI: 3.44 µM
[18]
  GI50: 1.98 µM
  TGI: 3.8 µM
[19]
  GI50: 1.66 µM
  TGI: 3.2 µM
[20]
  GI50: 1.34 µM
  TGI: 3.57 µM
[21]
  GI50: 1.19 µM
  TGI: 2.53 µM
[22]
  GI50: 1.77 µM
  TGI: 3.26 µM
[23]
  TGI: 1.02 µM
[24]
  GI50: 1.5 µM
  TGI: 2.98 µM
[25]
  GI50: 1.93 µM
  TGI: 4.07 µM
[26]
  GI50: 1.52 µM
  TGI: 2.89 µM
[27]
  GI50: 1.63 µM
  TGI: 3.33 µM
[28]
  GI50: 1.67 µM
  TGI: 3.41 µM
[29]
  GI50: 1.08 µM
  TGI: 2.33 µM
[30]
  GI50: 1.5 µM
  TGI: 4.63 µM
[31]
  GI50: 1.54 µM
  TGI: 3.02 µM
[32]
  GI50: 0.293 µM
  TGI: 14 µM
[33]
  GI50: 1.89 µM
  TGI: 3.5 µM
[34]
  GI50: 1.59 µM
  TGI: 2.98 µM
[35]
  GI50: 1.82 µM
  TGI: 3.85 µM
[36]
  GI50: 15.8 µM
  TGI: 65.3 µM
[37]
  GI50: 1.63 µM
  TGI: 3.13 µM
[38]
  GI50: 1.4 µM
  TGI: 3.12 µM
[39]
  GI50: 1.36 µM
  TGI: 2.66 µM
[40]
  GI50: 1.8 µM
  TGI: 3.67 µM
[41]
  GI50: 0.994 µM
  TGI: 2.24 µM
[42]
  GI50: 1.27 µM
  TGI: 2.6 µM
[43]
  GI50: 1.43 µM
  TGI: 2.8 µM
[44]
  GI50: 3.48 µM
  TGI: 11.5 µM
[45]
  GI50: 0.701 µM
  TGI: 2.75 µM
[46]
  GI50: 1.56 µM
  TGI: 27 µM
[47]
  GI50: 1.64 µM
  TGI: 3.04 µM
[48]
  GI50: 1.57 µM
  TGI: 3.48 µM
[49]
  GI50: 1.17 µM
  TGI: 2.41 µM
[50]
  GI50: 1.5 µM
  TGI: 3.1 µM
[51]
  GI50: 1.69 µM
  TGI: 3.09 µM
[52]
  GI50: 0.0802 µM
  TGI: 1.33 µM
[53]
  GI50: 1.47 µM
  TGI: 2.97 µM
[54]
  GI50: 1.62 µM
  TGI: 3.16 µM
[55]
  GI50: 1.73 µM
  TGI: 3.16 µM
[56]
  GI50: 0.161 µM
  TGI: 1.43 µM

## CC1=C[P+](c2ccccc2)(c2ccccc2)c2ccccc2O1
[1]
  TGI: 9.34 µM
[2]
  TGI: 94.4 µM
[3]
  TGI: > 100 µM
[4]
  TGI: 8.76 µM
[5]
  TGI: > 100 µM
[6]
  TGI: > 100 µM
[7]
  TGI: > 100 µM
[9]
  TGI: > 100 µM
[10]
  TGI: 15.7 µM
[11]
  TGI: 61 µM
[12]
  TGI: 10.8 µM
[13]
  TGI: 24.1 µM
[14]
  TGI: 21.6 µM
[15]
  TGI: > 100 µM
[16]
  TGI: 12 µM
[17]
  TGI: 8.28 µM
[18]
  TGI: 9.4 µM
[19]
  TGI: > 100 µM
[21]
  TGI: 41.1 µM
[22]
  TGI: > 100 µM
[23]
  TGI: > 100 µM
[24]
  TGI: > 100 µM
[25]
  TGI: 17.3 µM
[57]
  TGI: 46.2 µM
[26]
  TGI: > 100 µM
[27]
  TGI: > 100 µM
[28]
  TGI: > 100 µM
[29]
  TGI: 16.9 µM
[31]
  TGI: 5.29 µM
[32]
  TGI: 2.89 µM
[33]
  TGI: > 100 µM
[34]
  TGI: 38.9 µM
[35]
  TGI: > 100 µM
[36]
  TGI: 7.79 µM
[37]
  TGI: > 100 µM
[38]
  TGI: 11.6 µM
[39]
  TGI: 31.3 µM
[40]
  TGI: > 100 µM
[41]
  TGI: 17.2 µM
[42]
  TGI: > 100 µM
[43]
  TGI: > 100 µM
[44]
  TGI: > 100 µM
[45]
  TGI: 21 µM
[46]
  TGI: 94.6 µM
[47]
  TGI: 17.1 µM
[48]
  TGI: 59 µM
[49]
  TGI: 13.5 µM
[50]
  TGI: > 100 µM
[51]
  TGI: > 100 µM
[52]
  TGI: > 100 µM
[53]
  TGI: 44.9 µM
[55]
  TGI: > 100 µM
[56]
  TGI: 62.5 µM
[58]
  TGI: > 100 µM

Reference: PubChem BioAssay (NCI)
